Where a name gives a salt, the structure may show the parent alone.
The compounds below were run against T1, human hNET (Homo sapiens, UniProt P23975) (assay: Functional norepinephrine reuptake assay, Procedure A (50,000 cells/well)). Conditions: MDCK-Net6 cells, 50,000 cells/well, 16 nM 3H-norepinephrine; read-out: Procecedure A NE Uptake IC50.
T1 construct: expressed in transfected cells; host or cells: MDCK-Net6 (MDCK cells stably transfected with hNET)
Format: cell-based
Method: For screening, 25 μl aliquots of compound solution at a 1 μM or 10 μM final concentration was delivered directly to cells.
For IC50 determinations, stock compounds were prepared at 10 mM from powder. The stock solution was diluted according to compound testing range. Typically, the compound testing range was from 6 nM to 6 μM by half log dilutions. On the day of assay, 25 μl of compound solution at the specified concentrations were added to the plates containing cells. A DMSO stock of desipramine was prepared at 10 mM in DMSO and diluted for a final concentration of 20 μM to determine the non-specific reuptake.
MDCK-Net6 cells, stably transfected with human hNET (Pacholczyk, 1991), were maintained in growth media [high glucose DMEM (Gibco Cat. 11995), 10% FBS (dialyzed, heat-inactivated, Sigma, dialysed, heat inactivated, Lot# K0922 or equivalent) 1xPen/Strep, and 500 μg/ml G418 (Gibco Cat. 10131)]. Cells were plated at 300,000/T75 flask and cells split twice weekly.
Cells were plated at 50,000 cells/well (Procedure A) or 6,000 cells/well (Procedure B) on day 1 in BD Falcon Microtest 96-well sterile cell culture plates, Optilux White/Clear Bottom TC plate (VWR; # 62406-466 or equivalent) in growth media and maintained in a cell incubator (37° C., 5% CO2). On Day 2, cells were removed from the cell incubator and the growth media is replaced by 200 μl of assay buffer (25 mm HEPES 120 mM NaCL; 5 mM KCl; 2.5 mM CaCl2; 1.2 mM MgSO4; 2 mg/ml glucose (pH 7.4, 37° C.)) containing 0.2 mg/ml ascorbic acid and 1 μM parglyine. For screening, 25 μl of compound in 4% DMSO was added directly to each well and the plate was incubated for 5 minutes (37° C.). To initiate the norepinephrine reuptake, 16 nM (final concentration) of ^3H norepinephrine (specific activity; 40-80 Ci/mmol) in assay buffer was delivered in 25 μl aliquots to each well, and the plates were incubated for 5 min at 37° C. The reaction is aspirated from the plate and the cells washed with 250 μl of 50 mM Tris Buffer (4° C.). The plates were left to dry for 1 hour. The cells were lysed using 0.25 M NaOH solution then placed on a shake table and vigorously shaken for 10 minutes. After cell lysis, 100 μl of Microscint 20 (PerkinElmer; #87-051101) was added to the plates and the plates were sealed with film tape and replaced on the shake table for a minimum of 10 minutes. The plates were counted in a TopCount counter (PerkinElmer).
For screening single point determinations, each compound plate contained at least 3 control wells (maximum NE reuptake determinant) and 3 non-specific wells determined by adding 20 μM of desipramine (minimum NE reuptake determinant). Determination of active compounds was calculated using a Microsoft Excel spread sheet applying the following formula:
% inhibition=[1−((mean cpm test compound wells−mean cpm non-specific wells)/(mean cpm control wells−mean cpm non-specific wells))]×100
For IC50 determination, raw cpm values were generated in a data file from the TopCount counter. The data was organized using the Microsoft Excel and transferred into PRIZM graphing and statistical program, which calculated the estimated IC50 value. Calculation of IC50 values was made using non-linear regression analysis with a sigmoidal dose response with variable slope. The statistical program used wells containing ^3H norepinephrine only as the maximal NE reuptake determinant and wells containing ^3H norepinephrine plus 20 μM desipramine (AHR-9543) as the minimal NE reuptake determinant (non-specific determinant). Estimation of the IC50 value was completed on a log scale and the line was fit between the maximal and minimal NE reuptake values.

T1 sequence (P23975 whole entry): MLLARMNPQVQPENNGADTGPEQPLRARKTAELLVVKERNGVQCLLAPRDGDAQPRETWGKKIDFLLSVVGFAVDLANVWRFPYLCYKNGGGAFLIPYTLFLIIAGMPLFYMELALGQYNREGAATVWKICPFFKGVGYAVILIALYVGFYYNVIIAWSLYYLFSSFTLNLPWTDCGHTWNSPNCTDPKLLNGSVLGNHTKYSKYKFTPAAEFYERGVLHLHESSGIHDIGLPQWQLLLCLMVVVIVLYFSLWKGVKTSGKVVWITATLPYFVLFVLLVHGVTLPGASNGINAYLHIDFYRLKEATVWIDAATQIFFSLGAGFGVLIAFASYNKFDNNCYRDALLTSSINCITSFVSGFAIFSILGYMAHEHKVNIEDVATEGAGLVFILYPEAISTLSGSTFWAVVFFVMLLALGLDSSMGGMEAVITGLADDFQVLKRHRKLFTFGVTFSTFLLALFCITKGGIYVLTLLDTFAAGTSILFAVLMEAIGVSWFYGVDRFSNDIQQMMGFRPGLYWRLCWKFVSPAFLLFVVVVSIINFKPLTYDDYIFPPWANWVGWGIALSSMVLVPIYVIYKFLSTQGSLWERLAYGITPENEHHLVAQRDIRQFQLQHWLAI

IC50	Structure (SMILES)
0.113 µM	CNCCC[C@]1(C)Cc2ccccc2N(c2ccccc2)S1(=O)=O (single isomer, unassigned) [Example 9]
0.0335 µM	CNCCCC1Cc2ccccc2N(c2ccccc2)S1(=O)=O (stereo not drawn) [Example 1, 3-(2,2-dioxido-1-phenyl-3,4-dihydro-1H-2,1-benzothiazin-3-yl)-N-methylpropan-1-amine]
0.233 µM	NCCCC1Cc2ccccc2N(c2ccccc2)S1(=O)=O (stereo not drawn) [Example 2, 3-(2,2-dioxido-1-phenyl-3,4-dihydro-1H-2,1-benzothiazin-3-yl)propan-1-amine]
0.484 µM	CN(C)CCCC1Cc2ccccc2N(c2ccccc2)S1(=O)=O (stereo not drawn) [Example 3, 3-(2,2-dioxido-1-phenyl-3,4-dihydro-1H-2,1-benzothiazin-3-yl)-N,N dimethylpropan-1-amine]
1.88 µM	CCNCCCC1Cc2ccccc2N(c2ccccc2)S1(=O)=O (stereo not drawn) [Example 4, 3-(2,2-dioxido-1-phenyl-3,4-dihydro-1H-2,1-benzothiazin-3-yl)-N-ethylpropan-1-amine]
0.166 µM	CC(C)NCCCC1Cc2ccccc2N(c2ccccc2)S1(=O)=O (stereo not drawn) [Example 5, 3-(2,2-dioxido-1-phenyl-3,4-dihydro-1H-2,1-benzothiazin-3-yl)-N-isopropyl propan-1-amine]
0.133 µM	O=S1(=O)C(CCCN2CCCC2)Cc2ccccc2N1c1ccccc1 (stereo not drawn) [Example 6, 1-phenyl-3-(3-pyrrolidin-1-ylpropyl)-3,4-dihydro-1H-2,1-benzothiazine 2,2-dioxide]
3.01 µM	O=S1(=O)C(CCCNCc2ccccc2)Cc2ccccc2N1c1ccccc1 (stereo not drawn) [Example 7, N-benzyl-3-(2,2-dioxido-1-phenyl-3,4-dihydro-1H-2,1-benzothiazin-3-yl)propan-1-amine]
0.0331 µM	CNCCCC1Oc2ccccc2N(c2ccccc2)S1(=O)=O (stereo not drawn) [Example 12, 3-(2,2-dioxido-1-phenyl-1H-4,2,1-benzoxathiazin-3-yl)-N-methylpropan-1-amine]

Same assay, conditions: MDCK-Net6 cells, 50,000 cells/well; Conc 2000 nM

Procedure A [3H] NE Uptake Displacement %	Structure (SMILES)
17%	O=S1(=O)C(CCCNC2CCCCC2)Cc2ccccc2N1c1ccccc1 (stereo not drawn) [Example 8, N-[3-(2,2-dioxido-1-phenyl-3,4-dihydro-1H-2,1-benzothiazin-3-yl)propyl]cyclohexanamine]

Each compound was assayed against T1, human hNET (assay: Functional norepinephrine reuptake assay, Procedure B (6,000 cells/well)). Conditions: MDCK-Net6 cells, 6,000 cells/well, 16 nM 3H-norepinephrine; read-out: Procedure B hNET uptake IC50.
Format: cell-based
Outline: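 MDCK cells stably expressing human NET, 6,000 cells/well, in HEPES-buffered saline pH 7.4 with ascorbic acid and 1 μM pargyline; compound preincubated 5 min at 37° C. ^3H norepinephrine uptake counted by scintillation; non-specific defined with 20 μM desipramine. IC50 from variable-slope sigmoidal nonlinear fit.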

Structure (SMILES)	IC50
CNCCCC1Cc2ccccc2N(c2ccccc2)S1(=O)=O (stereo not drawn) [Example 1, 3-(2,2-dioxido-1-phenyl-3,4-dihydro-1H-2,1-benzothiazin-3-yl)-N-methylpropan-1-amine]	0.0185 µM
CNCCCC1Oc2ccccc2N(c2ccccc2)S1(=O)=O (stereo not drawn) [Example 12, 3-(2,2-dioxido-1-phenyl-1H-4,2,1-benzoxathiazin-3-yl)-N-methylpropan-1-amine]	0.0007 µM
CNCCCC1Cc2ccccc2N(c2ccccc2F)S1(=O)=O (stereo not drawn) [Example 89, 3-[1-(2-fluorophenyl)-2,2-dioxido-3,4-dihydro-1H-2,1-benzothiazin-3-yl]-N-methylpropan-1-amine]	0.018 µM
CNCCCC1Oc2ccccc2N(c2ccccc2F)S1(=O)=O (stereo not drawn) [Example 92]	0.019 µM
CNCCCC1Cc2cc(F)ccc2N(c2ccccc2F)S1(=O)=O (stereo not drawn) [Example 108, 3-[6-fluoro-1-(2-fluorophenyl)-2,2-dioxido-3,4-dihydro-1H-2,1-benzothiazin-3-yl]-N-methylpropan-1-amine]	0.024 µM
CNCCCC1Oc2cc(F)ccc2N(c2ccccc2F)S1(=O)=O (stereo not drawn) [Example 129, 3-[6-fluoro-1-(2-fluorophenyl)-2,2-dioxido-1H-4,2,1-benzoxathiazin-3-yl]-N-methylpropan-1-amine hydrochloride]	0.095 µM
C=C(CNC)CC1Cc2ccccc2N(c2ccccc2)S1(=O)=O (stereo not drawn) [Example 132, 2-[(2,2-dioxido-1-phenyl-3,4-dihydro-1H-2,1-benzothiazin-3-yl)methyl]-N-methylprop-2-en-1-amine]	0.016 µM
CN(C)CC1Oc2ccccc2N(c2ccccc2)S1(=O)=O (stereo not drawn) [Example 134, 1-(2,2-dioxido-1-phenyl-1H-4,2,1-benzoxathiazin-3-yl)-N,N-dimethylmethanamine]	0.788 µM

Results, then the compound that gave them:

IC50	Structure (SMILES)
0.165 µM	O=S1(=O)C(CN2CCNCC2)Oc2ccccc2N1c1ccccc1 (stereo not drawn) [Example 135, 1-phenyl-3-(piperazin-1-ylmethyl)-1H-4,2,1-benzoxathiazine 2,2-dioxide]
1.36 µM	CCNCC1Oc2ccccc2N(c2ccccc2)S1(=O)=O (stereo not drawn) [Example 136, N-[(2,2-dioxido-1-phenyl-1H-4,2,1-benzoxathiazin-3-yl)methyl]ethanamine]
0.193 µM	NCCNCC1Oc2ccccc2N(c2ccccc2)S1(=O)=O (stereo not drawn) [Example 137, N-[(2,2-dioxido-1-phenyl-1H-4,2,1-benzoxathiazin-3-yl)methyl]ethane-1,2-diamine]
3.75 µM	CN(C)CCNCC1Oc2ccccc2N(c2ccccc2)S1(=O)=O (stereo not drawn) [Example 138, N′-[(2,2-dioxido-1-phenyl-1H-4,2,1-benzoxathiazin-3-yl)methyl]-N,N-dimethylethane-1,2-diamine]
0.644 µM	CNCCN(C)CC1Oc2ccccc2N(c2ccccc2)S1(=O)=O (stereo not drawn) [Example 139, N-[(2,2-dioxido-1-phenyl-1H-4,2,1-benzoxathiazin-3-yl)methyl]-N,N′-dimethylethane-1,2-diamine]
4.32 µM	CN(C)CCN(C)CC1Oc2ccccc2N(c2ccccc2)S1(=O)=O (stereo not drawn) [Example 140, N-[(2,2-dioxido-1-phenyl-1H-4,2,1-benzoxathiazin-3-yl)methyl]-N,N′,N′-trimethylethane-1,2-diamine]
1.15 µM	CC1CN(CC2Oc3ccccc3N(c3ccccc3)S2(=O)=O)CC(C)N1 (stereo not drawn) [Example 142, 3-[(3,5-dimethylpiperazin-1-yl)methyl]-1-phenyl-1H-4,2,1-benzoxathiazine 2,2-dioxide]
0.231 µM	O=S1(=O)C(CN2CC3CC2CN3)Oc2ccccc2N1c1ccccc1 (stereo not drawn) [Example 143, 3-(2,5-diazabicyclo[2.2.1]hept-2-ylmethyl)-1-phenyl-1H-4,2,1-benzoxathiazine 2,2-dioxide]
0.042 µM	CNCCCC1Cc2cc(Cl)ccc2N(c2ccccc2F)S1(=O)=O (stereo not drawn) [Example 175, 3-[6-chloro-1-(2-fluorophenyl)-2,2-dioxido-3,4-dihydro-1H-2,1-benzothiazin-3-yl]-N-methylpropan-1-amine]

Same assay, conditions: MDCK-Net6 cells, 6,000 cells/well; Conc 6000 nM (6 μM); hydrochloride

Procedure B hNET uptake (% inhibition)	Structure (SMILES)
35%	CN1CCN(CCC2Oc3ccccc3N(c3ccccc3)S2(=O)=O)CC1 (stereo not drawn) [Example 87, 3-[2-(4-Methyl-piperazin-1-yl)-ethyl]-1-phenyl-1H-benzo[1,3,4]oxathiazine 2,2-dioxide hydrochloride]

Same assay, conditions: MDCK-Net6 cells, 6,000 cells/well; Conc 6000 nM (6 μM); read-out: Procedure B hNET uptake (% inhibition)

inhibition at 6 µM	Structure (SMILES)
30%	CN1CCN(CC2Oc3ccccc3N(c3ccccc3)S2(=O)=O)CC1 (stereo not drawn) [Example 141, 3-[(4-methylpiperazin-1-yl)methyl]-1-phenyl-1H-4,2,1-benzoxathiazine 2,2-dioxide]
53%	CNCC1Oc2ccccc2N(c2ccccc2)S1(=O)=O (stereo not drawn) [Example 144, 1-(2,2-dioxido-1-phenyl-1H-4,2,1-benzoxathiazin-3-yl)-N-methylmethanamine]

Reference: patent US20080171737A1 (Wyeth, priority 2006, published 2008)
